Results on two compounds are retold here after patent US11427567B2, “Imidazolyl pyrimidinylamine compounds as CDK2 inhibitors” (Incyte Corporation, priority 2019, dated 2022).

A value given as a limit tells only on which side of the number the result lay.

Assay [1] deals with CCNE1 amplified COV318 cells. As to the kind of experiment: Cell cycle analysis by FACS after p16 knockdown and CDK2 inhibitor treatment. Type of assay: cell-based, human. The note with it: 100 nM, 16 hours. The procedure:
To confirm the role of p16 in CDK2-sensitivity of CCNE-amplified cells, COV318 cells were treated with control or p16-specific siRNA.
Human cyclin E1 (CCNE1) amplified ovarian cell lines OVCAR3, COV318, Fu-OV1, endometrial cell line KLE, gastric cell lines MKN1, AGS, NCIN87, and CCNE1 non-amplified ovarian cell lines COV504, OV56, Igrov1 were cultured in RPMI 1640 medium. The complete growth medium was supplemented with 10% FBS, 0.1 mM non-essential amino acids, 2 mM L-glutamine, 100 units/mL penicillin G and 100 μg/mL streptomycin in 37° C. humidified incubator and an atmosphere of 5% CO2 in air. Fu-OV1 line was purchased from Leibniz-Institute DSMZ—German Collection of Microorganisms and Cell Cultures; MKN1 was purchased from Japanese Cancer Research Resources Bank; and the rest of cell lines were purchased from American Type Culture Collection. For transfection, cells were seeded into 6-well for 24 hours and transiently transfected by Lipofectamine 2000 Reagent (Thermo Fisher, 11668027). […]
Bulk DNA was stained with DAPI. Compound-treated and DMSO treated control cells were acquired with CytoFlex (Beckman Coulter) and were analyzed using the FlowJo software. […]

For assay [2], the system named is Rb phosphorylated on serine 780 in CCNE1 amplified COV318 cells. As to the kind of experiment: CDK2 pRb (S780) HTRF cellular assay. Type of assay: cell-based. To be noted: Homo sapiens, overnight treatment, read-out: IC50 in p-RB S780 HTRF cellular assay. The method, then: CDK2 pRb (5780) HTRF cellular assay enables the quantitative detection of Rb phosphorylated on […] in CCNE1 amplified COV318 cells. The assay comprised two antibodies: Europium cryptate labeled anti-Phospho-Rb […] antibody (donor) and d2 labeled anti-Rb antibody (acceptor). In brief, COV318 cells were seeded into the wells of 96-well plate at a density of 25,000 per well with 9-point, 3-fold serial diluted compounds and cultured overnight at 37 degree with 5% CO2. The final concentrations of compounds start from 3 μM. […] After 2h of incubation at room temperature, HTRF signals were measured on the PHERAstar microplate reader (BMG Labtech), using 340 nm as excitation wavelength, a 620 nm filter for the Europium donor fluorescence, and a 665-nm filter for the acceptor fluorescence detection. HTRF signals were calculated as the HTRF ratio (ratio of fluorescence measured at 665 nm and 620 nm)×10000.

The subject of assay [3] is Rb phosphorylation at S780 in CCNE1-amplified cell lines (OVCAR3 and COV318). Kind of assay: Western blot of Rb phosphorylation at S780, CCNE1-amplified cell lines. To be noted: various doses, 1 or 15 hours. Type of assay: cell-based, human. The method, then: (§1) The effect of CDK4/6-inhibition on Rb phosphorylation at 5780 in CCNE1-amplified versus CCNE1-non-amplified cell lines was evaluated. […] One or 15 hours after treatment, the cells were harvested and total protein was extracted and analyzed by western blot (FIG. 8).
(§2) Whole cell extracts were prepared using RIPA buffer (Thermo Scientific, 89900) with a Halt Protease and Phosphatase Inhibitor Cocktail (Thermo Scientific, 78440). Protein concentration was quantified with a BCA Protein Assay Kit (Thermo Scientific, 23225) and 40 μg of protein lysates were loaded for SDS-PAGE using precast gradient gels (Bio-Rad, Hercules, No. 456-1094). Samples were diluted in 5× Laemmli buffer (300 mM Tris-HCl pH 6.8, 10% SDS (w/v), 5% 2-mercaptoethanol, 25% glycerol (v/v), 0.1% bromophenol blue w/v) and boiled for 5 minutes. […] of proteins were separated by 8-15% SDS-PAGE and transferred onto polyvinylidene fluoride (PVDF) membranes. Unspecific binding sites on the PVDF membranes were blocked with 5% non-fat milk in TBST (20 mM Tris-HCl, pH 7.6, 137 mM NaCl, 1% Tween-20). […] Images were captured by Luminescence/Fluorescence Imaging System Odyssey CLx Imager (LI-COR).

The subject of assay [4] is CCNE1-non-amplified cell lines (COV504, OV56, Igrov1). Kind of assay: Cell cycle analysis by FACS upon CDK4/6 inhibition, CCNE1-non-amplified cell lines. Format: cell-based, human. The procedure:
(§3) The effect of CDK4/6-inhibition in CCNE1-amplified versus CCNE1-non-amplified cell lines was evaluated.
(§4) A similar experiment was performed in a larger set of CCNE1-amplified cell lines (COV318 and OVCAR3) and CCNE1-non-amplified cell lines (COV504, OV56, and Igrov1) (FIG. 6).
(§5) The complete growth medium was supplemented with 10% FBS, 0.1 mM non-essential amino acids, 2 mM L-glutamine, 100 units/mL penicillin G and 100 μg/mL streptomycin in 37° C. humidified incubator and an atmosphere of 5% CO2 in air. Fu-OV1 line was purchased from Leibniz-Institute DSMZ—German Collection of Microorganisms and Cell Cultures; MKN1 was purchased from Japanese Cancer Research Resources Bank; and the rest of cell lines were purchased from American Type Culture Collection.
(§6) Bulk DNA was stained with DAPI. Compound-treated and DMSO treated control cells were acquired with CytoFlex (Beckman Coulter) and were analyzed using the FlowJo software.

For assay [5], the system named is CCNE1-amplified cell lines (COV318, OVCAR3). Kind of assay: Cell cycle analysis by FACS upon CDK4/6 inhibition, CCNE1-amplified cell lines. Format: cell-based, human. The method, then:
as §3, §4, §5, §6

The subject of assay [6] is Rb phosphorylation at S780 in CCNE1-non-amplified cell lines (COV504 and OV56). Kind of assay: Western blot of Rb phosphorylation at S780, CCNE1-non-amplified cell lines. Type of assay: cell-based, human. To be noted: various doses, 1 or 15 hours. The method, then:
as §1, §2

Take `C[C@@]1(O)CCC[C@H]1n1c(=O)ccc2cnc(NC3CCN(S(C)(=O)=O)CC3)nc21` [Compound A, 8-((1R,2R)-2-hydroxy-2-methylcyclopentyl)-2-((1-(methylsulfonyl)piperidin-4-yl)amino)pyrido[2,3-d]pyrimidin-7(8H)-one]: the “Percentage of S phase cells” value in assay [1] (control siRNA-treated COV318 cells) is on record as “significantly decreased”. Further, in assay [1] (p16 knocked down COV318 cells), the “Percentage of S phase cells as compared to DMSO control” value is reported as “not significantly decreased”. In addition, the 50% inhibitory concentration (IC50) in assay [2] came to 37 nM.
On to `CC(=O)c1c(C)c2cnc(Nc3ccc(N4CCNCC4)cn3)nc2n(C2CCCC2)c1=O` [Palbociclib], for which the results for the “Rb phosphorylation at S780 (western blot)” value in assay [3] and in assay [6] were “not in CCNE1-amplified cell lines” and “blocked Rb phosphorylation”, respectively. Moreover, the “Inhibition of proliferation (cell cycle analysis by FACS)” value in assay [4] (CCNE1-non-amplified cells (COV504), increasing concentrations, 16 hours) is given as “dose-dependent inhibition of the proliferation”; in assay [5] (CCNE1-amplified cells (OVCAR3), increasing concentrations, 16 hours), “not in CCNE1-amplified cells”. The “Percentage of cells at the S phase as compared to DMSO” value is on record as “decreased in CCNE1-non-amplified cell lines in a dose-dependent fashion” in assay [4] (COV504, OV56, Igrov1, 16 hours after treatment); “not significantly different” in assay [5] (COV318 and OVCAR3, 16 hours after treatment). The IC50 in assay [2] was > 3000 nM.
